Molecules are shown by their SMILES. Like-named read-outs stand apart in the source and are kept apart here.

Data on four compounds can be found in PMC4472245, “Alternative divalent cations (Zn^2+, Co^2+, and Mn^2+) are not mutagenic at conditions optimal for HIV-1 reverse transcriptase activity” (BMC Biochemistry, 2015).

Experiment [1] has as its target T1, HIV RT (HIV-1 reverse transcriptase, p66/p51) (HIV-1 M:B_HXB2R, UniProt P04585).
T1 construct: gene gag-pol
The following applies: read-out: ^d K m / μM, 0.4 mM free Zn2+ instead of Mg2+, DNA primer-template, pH 7.7, 37 °C.
Excerpt: steady-state running-start incorporation, gel on HIV RT (HIV-1 reverse transcriptase, p66/p51)

Experiment [2] has as its target T1, HIV RT (HIV-1 reverse transcriptase, p66/p51). Conditions: read-out: ^d K m / μM; 0.4 mM free Zn2+ instead of Mg2+; DNA primer-template with matched C.G 3' end; next correct nucleotide; pH 7.7, 37 °C, 80 mM KCl.

As for `Nc1ncnc2c1ncn2[C@H]1C[C@H](O)[C@@H](COP(=O)(O)OP(=O)(O)OP(=O)(O)O)O1` [dATP], the Km in experiment [1] (misinsertion opposite template C (C.A mismatch)) was 518 ± 43 µM.

For `Nc1ccn([C@H]2C[C@H](O)[C@@H](COP(=O)(O)OP(=O)(O)OP(=O)(O)O)O2)c(=O)n1` [dCTP], in experiment [2], the Km was found to be 0.04 ± 0.01 µM.

Consider `Nc1nc2c(ncn2[C@H]2C[C@H](O)[C@@H](COP(=O)(O)OP(=O)(O)OP(=O)(O)O)O2)c(=O)[nH]1` [dGTP], for which the Km in experiment [1] (correct insertion opposite template C (C.G), 55 μM dATP) was 0.19 ± 0.09 µM.

As for `Cc1cn([C@H]2C[C@H](O)[C@@H](COP(=O)(O)OP(=O)(O)OP(=O)(O)O)O2)c(=O)[nH]c1=O` [dTTP], in experiment [1] (misinsertion opposite template C (C.T mismatch), 55 μM dATP), the Km worked out at 244 ± 102 µM.
